Data taken from patent US7396939B2, “3-cyclopropyl-4-(3-amino-2-methylbenzoyl)pyrazoles and their use as herbicides” (Bayer CropScience GmbH, priority 2004, dated 2008).
Like-named read-outs stand apart in the source and are kept apart here.

Tests used:
Type in all cases: in vivo
Galium aparine (GALAP) [1] = experiment: Post-emergence action against harmful plants; conditions: post-emergence application
Experimental: (§1) Seeds of monocotyledonous and dicotyledonous harmful plants and seeds of corn, soybean and wheat are placed into sandy loam in cardboard pots, covered with soil and grown in the greenhouse under good growth conditions. Two to three weeks after sowing the harmful plants and the crop plants are treated in the three-leaf stage. The compounds according to the invention and the prior-art compounds, formulated as wettable powders or emulsion concentrates, are sprayed onto the green plant parts at an application rate of 600 to 800 l of water/ha (converted) in one of the dosages given in tables 1 to 10. After the test plants have remained in the greenhouse under optimum growth conditions for 3 to 4 weeks, the effect of the compounds is rated in comparison to compounds disclosed in the prior art.

Veronica persica (VERPE) = experiment: Post-emergence action against harmful plants; conditions: post-emergence application
Experimental: as §1

[2] = test system: Glycine max (soybean) (GLXMA); experiment: Post-emergence damage of crop plants; conditions: post-emergence application
Experimental: as §1

[3] = test system: Oryza sativa (rice) (ORYSA); experiment: Damage of rice under paddy rice conditions; conditions: post-emergence application
Experimental: (§2) Rice plants and harmful plants typical in rice crops are grown in the greenhouse under paddy rice conditions (water level: 2-3 cm). After the treatment with the compounds according to the invention and the prior-art compounds, the test plants are placed in the greenhouse under optimum growth conditions and kept like this during the entire test. About three weeks after the application, evaluation is carried out by visual scoring of the damage to the plants.

Avena fatua (AVEFA) = experiment: Post-emergence action against harmful plants; conditions: post-emergence application, 320 g of a.i./ha, Comparative Table 8
Experimental: as §1

[4] = test system: Matricaria inodora (MATIN); experiment: Post-emergence action against harmful plants; conditions: for pest or weed control at 320 g/ha / pest or weed control at 80 g/ha: Tripleurospermum inodorum, read-out: Herbicidal action MATIN; for pest or weed control at 320 g/ha / Herbicidal action MATIN: 320 g of a.i./ha; for Herbicidal action MATIN: Comparative Table 10
Experimental: as §1

Zea mays (corn) (ZEAMX) [5] = experiment: Post-emergence damage of crop plants; conditions: post-emergence application
Experimental: as §1

Galium aparine (GALAP) [6] = experiment: Pre-emergence action against harmful plants; conditions: pre-emergence application, 320 g of a.i./ha, Comparative Table 7
Description: (§3) Seeds of monocotyledonous and dicotyledonous harmful plants and seeds of corn, soybean and wheat are placed into sandy loam in cardboard pots and covered with soil. The compounds according to the invention and the prior-art compounds, formulated as wettable powders or emulsion concentrates, are then applied to the surface of the covering soil as an aqueous suspension or emulsion at an application rate of 600 to 800 l of water/ha (converted) in one of the dosages given in tables 1 to 10. After the treatment, the pots are placed in a greenhouse and kept under good growth conditions for the harmful plants and crop plants. Visual scoring of plant or emergence damage is carried out after the test plants have emerged after an experimental period of 3 to 4 weeks.

Zea mays (corn) (ZEAMX) [7] = experiment: Pre-emergence damage of crop plants; conditions: pre-emergence application, 320 g of a.i./ha, Comparative Table 7
Description: as §3

Stellaria media (STEME) = experiment: Post-emergence action against harmful plants; conditions: post-emergence application, 80 g of a.i./ha
Experimental: as §1

[8] = test system: Echinochloa crus galli (ECHCG); experiment: Post-emergence action against harmful plants; conditions: post-emergence application
Experimental: as §1

[9] = test system: Pharbitis purpureum (PHBPU); experiment: Post-emergence action against harmful plants; conditions: post-emergence application, 320 g of a.i./ha
Experimental: as §1

[10] = test system: Triticum aestivum (wheat) (TRZAS); experiment: Post-emergence damage of crop plants; conditions: post-emergence application, 320 g of a.i./ha, Comparative Table 6
Experimental: as §1

Setaria viridis (SETVI) = experiment: Action against harmful plants in the rice test; conditions: post-emergence application, 320 g of a.i./ha, Comparative Table 5
Experimental: as §2

[11] = test system: Digitaria sanguinalis (DIGSA); experiment: Post-emergence action against harmful plants; conditions: post-emergence application, 80 g of a.i./ha, Comparative Table 1
Experimental: as §1

Viola tricolor (VIOTR) = experiment: Post-emergence action against harmful plants; conditions: post-emergence application, 80 g of a.i./ha, Comparative Table 1
Experimental: as §1

[12] = 20 g of a.i./ha, Comparative Table 2
[13] = post-emergence application, Comparative Table 8
[14] = 320 g of a.i./ha, Comparative Table 8
[15] = 80 g of a.i./ha, Comparative Table 3
[16] = post-emergence application, 80 g of a.i./ha, Comparative Table 3
[17] = 320 g of a.i./ha, Comparative Table 10
[18] = post-emergence application, Comparative Table 9
[19] = 320 g of a.i./ha, Comparative Table 9
[20] = 320 g of a.i./ha, Comparative Table 6
[21] = post-emergence application, Comparative Table 6
[22] = 320 g of a.i./ha, Comparative Table 5
[23] = 80 g of a.i./ha, Comparative Table 1
[24] = post-emergence application, 80 g of a.i./ha, Comparative Table 1
[25] = 80 g of a.i./ha, Comparative Table 4

CCCCNc1c(S(C)(=O)=O)ccc(C(=O)c2c(C3CC3)nn(C)c2O)c1C [No. 4]
Herbicidal action GALAP (Galium aparine (GALAP) [1]; [12]): 80%
Herbicidal action VERPE (Veronica persica (VERPE); [12]): 60%
Damage to the crop plants GLXMA [2, 12]: 0%
Damage to the crop plants ORYSA [3, 12]: 0%

COCCNc1c(S(C)(=O)=O)ccc(C(=O)c2c(C3CC3)nn(C)c2O)c1C [No. 9]
Herbicidal action AVEFA (Avena fatua (AVEFA)): 70%
pest or weed control at 320 g/ha [4, 13]: 80%
Damage to the crop plants GLXMA [2, 14]: 20%
Damage to the crop plants ZEAMX (Zea mays (corn) (ZEAMX) [5]; [14]): 0%
Herbicidal action GALAP (Galium aparine (GALAP) [6]): 80%
Damage to the crop plants ZEAMX (Zea mays (corn) (ZEAMX) [7]): 0%

C=CCNc1c(S(C)(=O)=O)ccc(C(=O)c2c(C)nn(C)c2O)c1C [S4]
Herbicidal action GALAP (Galium aparine (GALAP) [1]; [15]): 80%
pest or weed control at 80 g/ha [4, 16]: 30%
Herbicidal action STEME (Stellaria media (STEME); Comparative Table 3): 100%
Damage to the crop plants GLXMA [2, 15]: 50%
Damage to the crop plants ZEAMX (Zea mays (corn) (ZEAMX) [5]; [15]): 30%

CCOCCNc1c(S(C)(=O)=O)ccc(C(=O)c2c(C3CC3)nn(C)c2O)c1C [No. 10]
Herbicidal action ECHCG [8, 17]: 100%
pest or weed control at 320 g/ha [4, 18]: 100%
Herbicidal action MATIN ([4]; post-emergence application): 100%
Herbicidal action PHBPU ([9]; Comparative Table 9): 100%
Herbicidal action PHBPU ([9]; Comparative Table 10): 100%
Herbicidal action VERPE (Veronica persica (VERPE); [19]): 100%
Herbicidal action VERPE (Veronica persica (VERPE); [17]): 100%
Damage to the crop plants GLXMA [2, 19]: 20%
Damage to the crop plants GLXMA [2, 17]: 20%
Damage to the crop plants ZEAMX (Zea mays (corn) (ZEAMX) [5]; [17]): 0%

CCn1nc(C)c(C(=O)c2ccc(S(C)(=O)=O)c(N3CCCC3)c2C)c1O [S6]
Herbicidal action ECHCG [8, 20]: 50%
pest or weed control at 320 g/ha [4, 21]: 0%
Damage to the crop plants GLXMA [2, 20]: 20%
Damage to the crop plants TRZAS [10]: 10%
Damage to the crop plants ORYSA [3, 22]: 20%
Herbicidal action SETVI (Setaria viridis (SETVI)): 90%

CCCNc1c(S(C)(=O)=O)ccc(C(=O)c2c(C)nn(C)c2O)c1C [S2]
Herbicidal action DIGSA [11]: 80%
Herbicidal action ECHCG [8, 23]: 80%
pest or weed control at 80 g/ha [4, 24]: 30%
Herbicidal action VIOTR (Viola tricolor (VIOTR)): 80%
Damage to the crop plants ZEAMX (Zea mays (corn) (ZEAMX) [5]; [23]): 60%

C=CCNc1c(S(C)(=O)=O)ccc(C(=O)c2c(C3CC3)nn(C)c2O)c1C [No. 5]
Herbicidal action GALAP (Galium aparine (GALAP) [1]; [15]): 80%
pest or weed control at 80 g/ha [4, 16]: 50%
Herbicidal action STEME (Stellaria media (STEME); Comparative Table 3): 100%
Damage to the crop plants GLXMA [2, 15]: 0%
Damage to the crop plants ZEAMX (Zea mays (corn) (ZEAMX) [5]; [15]): 10%

CCOCCNc1c(S(C)(=O)=O)ccc(C(=O)c2c(C)nn(C)c2O)c1C [S1]
pest or weed control at 320 g/ha [4, 18]: 60%
Herbicidal action PHBPU ([9]; Comparative Table 9): 90%
Herbicidal action VERPE (Veronica persica (VERPE); [19]): 100%
Damage to the crop plants GLXMA [2, 19]: 90%

CCCNc1c(S(C)(=O)=O)ccc(C(=O)c2c(C3CC3)nn(C)c2O)c1C [No. 3]
Herbicidal action DIGSA [11]: 90%
Herbicidal action ECHCG [8, 23]: 90%
pest or weed control at 80 g/ha [4, 24]: 70%
Herbicidal action VIOTR (Viola tricolor (VIOTR)): 90%
Damage to the crop plants ZEAMX (Zea mays (corn) (ZEAMX) [5]; [23]): 30%

Cc1nn(C)c(O)c1C(=O)c1ccc(S(C)(=O)=O)c(N2CCCCC2)c1C [S5]
pest or weed control at 80 g/ha ([4]; post-emergence application, 80 g of a.i./ha, Comparative Table 4): 40%
Herbicidal action STEME (Stellaria media (STEME); Comparative Table 4): 20%
Damage to the crop plants ZEAMX (Zea mays (corn) (ZEAMX) [5]; [25]): 10%

CCn1nc(C)c(C(=O)c2ccc(S(C)(=O)=O)c(NCCOC)c2C)c1O [S7]
Herbicidal action AVEFA (Avena fatua (AVEFA)): 50%
Herbicidal action ECHCG [8, 17]: 90%
pest or weed control at 320 g/ha [4, 13]: 70%
Herbicidal action MATIN ([4]; post-emergence application): 70%
Herbicidal action PHBPU ([9]; Comparative Table 10): 40%
Herbicidal action VERPE (Veronica persica (VERPE); [17]): 90%
Damage to the crop plants GLXMA [2, 14]: 60%
Damage to the crop plants GLXMA [2, 17]: 60%
Damage to the crop plants ZEAMX (Zea mays (corn) (ZEAMX) [5]; [14]): 20%
Damage to the crop plants ZEAMX (Zea mays (corn) (ZEAMX) [5]; [17]): 20%
Herbicidal action GALAP (Galium aparine (GALAP) [6]): 70%
Damage to the crop plants ZEAMX (Zea mays (corn) (ZEAMX) [7]): 20%

Cc1c(C(=O)c2c(C3CC3)nn(C)c2O)ccc(S(C)(=O)=O)c1N1CCCC1 [No. 14]
Herbicidal action ECHCG [8, 20]: 80%
pest or weed control at 320 g/ha [4, 21]: 50%
Damage to the crop plants GLXMA [2, 20]: 10%
Damage to the crop plants TRZAS [10]: 0%
Damage to the crop plants ORYSA [3, 22]: 10%
Herbicidal action SETVI (Setaria viridis (SETVI)): 100%

CCCCNc1c(S(C)(=O)=O)ccc(C(=O)c2c(C)nn(C)c2O)c1C [S3]
Herbicidal action GALAP (Galium aparine (GALAP) [1]; [12]): 40%
Herbicidal action VERPE (Veronica persica (VERPE); [12]): 20%
Damage to the crop plants GLXMA [2, 12]: 20%
Damage to the crop plants ORYSA [3, 12]: 30%

Cc1c(C(=O)c2c(C3CC3)nn(C)c2O)ccc(S(C)(=O)=O)c1N1CCCCC1 [No. 15]
pest or weed control at 80 g/ha ([4]; post-emergence): 60%
Herbicidal action STEME (Stellaria media (STEME); Comparative Table 4): 70%
Damage to the crop plants ZEAMX (Zea mays (corn) (ZEAMX) [5]; [25]): 0%
